Tests used:
human ALK2 R206H = biological target: T1, human ALK2 R206H (Homo sapiens, UniProt Q04771, R206H); experiment: Cell-based ALK2-R206H cell activity assay (Smad1-Ser463/Ser465 phosphorylation by AlphaLISA in HEK293-ALK2-R206H cells); conditions: read-out: Cell Line (Cell Assay IC50)
T1 construct: expressed in transfected cells; host or cells: HEK293 (ATCC CRL1573), lentivirus transduction, blasticidin selection
T1 sequence (Q04771 21-509 R206H): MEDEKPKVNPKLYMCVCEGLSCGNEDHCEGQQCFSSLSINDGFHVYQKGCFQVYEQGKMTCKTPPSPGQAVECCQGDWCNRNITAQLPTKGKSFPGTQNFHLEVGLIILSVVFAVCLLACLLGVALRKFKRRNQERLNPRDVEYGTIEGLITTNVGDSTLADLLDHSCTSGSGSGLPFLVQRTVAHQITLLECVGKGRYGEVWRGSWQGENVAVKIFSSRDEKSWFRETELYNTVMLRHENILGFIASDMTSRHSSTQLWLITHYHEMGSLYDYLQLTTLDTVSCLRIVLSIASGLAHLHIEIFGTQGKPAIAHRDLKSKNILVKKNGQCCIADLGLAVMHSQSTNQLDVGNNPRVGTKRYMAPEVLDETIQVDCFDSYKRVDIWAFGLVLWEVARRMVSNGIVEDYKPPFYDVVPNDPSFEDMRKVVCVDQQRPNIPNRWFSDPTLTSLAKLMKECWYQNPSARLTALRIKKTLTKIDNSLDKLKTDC
Method in brief: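 Stable HEK293 cells expressing C-terminally FLAG-tagged human ALK2 R206H (lentiviral, blasticidin-selected) were treated with compounds in 10-point, 3-fold dilutions from 10 μM or 1 μM top, in duplicate. Smad1 Ser463/Ser465 phosphorylation was read by AlphaLISA.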

[1] = biological target: T2, ALK2 R206H (GST-tagged mutant ALK2) (Homo sapiens, UniProt Q04771, R206H); experiment: ALK binding assay (LANTHASCREEN TR-FRET competitive binding, displacement of Kinase Tracer 178); conditions: ALK2 R206H, LANTHASCREEN TR-FRET competitive binding; read-out: Binding Assay (IC50)
T2 construct: purchased Carna Bioscience or ThermoFisher 09-148 or PV6232
T2 sequence (Q04771 21-509 R206H): T1 sequence (Q04771 21-509 R206H)

Row | SMILES | IC50 (human ALK2 R206H) | IC50 [1]
1 | CC(C)NC(=O)N1CCN(c2ccnn3cc(-c4ccc(C56CCN(CC5)CC6)cc4)cc23)CC1 [Compound 519] | < 0.1 µM | < 0.01 µM
2 | CCOC(=O)N1CCN(c2ccnn3cc(-c4ccc(N5CC6(C5)CN(C(C)C)C6)cc4)cc23)CC1 [Compound 338] | 0.1 to 0.5 µM | < 0.01 µM
3 | CC(C)N1CCC(c2ccc(-c3cc4c(N5CCN(C(=O)OC(C)(C)C)CC5)ccnn4c3)cc2)CC1 [Compound 632] | 0.1 to 0.5 µM | < 0.01 µM
4 | CC(C)N1CCC(c2ccc(-c3cc4c(N5CCN(C(=O)C6CC6)CC5)ccnn4c3)cc2)(C(F)(F)F)CC1 [Compound 727] | < 0.1 µM | < 0.01 µM
5 | COC1(c2ccc(-c3cc4c(N5CCN(C(=O)OC6COC6)CC5)ccnn4c3)nc2)CCN([C@H](C)COC(F)F)CC1 [Compound 898] | < 0.1 µM | < 0.01 µM
6 | CCN1CCC(c2ccc(-c3cc4c(N5CCN(C(=O)C6CCC(C)(O)CC6)CC5)ccnn4c3)cc2)CC1 (centres unmarked) [Compound 431] | 0.1 to 0.5 µM | < 0.01 µM
7 | COC1(c2ccc(-c3cc4c(N5CCN(C(=O)C6CC6)CC5)ccnn4c3)cc2F)CCN(C(C)C)CC1 [Compound 680] | < 0.1 µM | < 0.01 µM
8 | O=C(C1CC1)N1CCN(c2ccnn3cc(-c4ccc(C5CCNCC5F)cc4)cc23)CC1 (centres unmarked) [Compound 174] | 0.1 to 0.5 µM | < 0.01 µM
9 | COCC1(c2ccc(-c3cc4c(N5CCN(C(=O)C6CC6)CC5)ccnn4c3)cc2)CCN(C(C)C)CC1 [Compound 824] | < 0.1 µM | < 0.01 µM
10 | CC(C)N1CCC[C@@H](c2ccc(-c3cc4c(N5CCN(C(=O)O[C@H]6CCOC6)CC5)ccnn4c3)cc2)C1 [Compound 826] | < 0.1 µM | < 0.01 µM
11 | [2H]C([2H])([2H])C([2H])([2H])N1CCN(c2ccc(-c3cc4c(N5CCN(C(=O)NCC)CC5)ccnn4c3)cc2)CC1 [Compound 240] | < 0.1 µM | < 0.01 µM
12 | CCN1CCC(c2ccc(-c3cc4c(N5CCN(C(=O)N6CCCCC6)CC5)ccnn4c3)cc2)CC1 [Compound 379] | 0.1 to 0.5 µM | < 0.01 µM
13 | CC(C)NC(=O)N1CCN(c2ccnn3cc(-c4ccc(C5(COC(F)F)CCN(C(C)C)CC5)cc4)cc23)CC1 [Compound 887] | < 0.1 µM | < 0.01 µM
14 | CCNC(=O)N1CCN(c2ccnn3cc(-c4ccc([C@H]5CCCN(C(C)C)C5)cc4)cc23)CC1 [Compound 277] | < 0.1 µM | < 0.01 µM
15 | CC(C)N1CCC(c2ccc(-c3cc4c(N5CCN(C(=O)OCC(F)(F)F)CC5)ccnn4c3)cc2)CC1 [Compound 430] | < 0.1 µM | < 0.01 µM
16 | COC1(c2ccc(-c3cc4c(N5CCN(C(=O)[C@H]6C[C@H](C#N)C6)CC5)ccnn4c3)cc2)CCN(C(C)C)CC1 [Compound 728] | < 0.1 µM | < 0.01 µM

Row | SMILES | IC50 (human ALK2 R206H) | IC50 [1]
17 | CC(C)N1CCN(c2ccc(-c3cc4c(N5CCN(C(=O)[C@@H]6C[C@H]6F)CC5)ccnn4c3)cc2)CC1 [Compound 349] | < 0.1 µM | < 0.01 µM
18 | C[C@@H]1CN(c2ccnn3cc(-c4ccc(N5CCNCC5)cc4)cc23)CCN1C(=O)C1CC1 [Compound 152] | < 0.1 µM | < 0.01 µM
19 | CO[C@]1(c2ccc(-c3cc4c(N5CCN(C(=O)OC6COC6)CC5)ccnn4c3)nc2)CCCNC1 [Compound 800] | < 0.1 µM | < 0.01 µM
20 | O=C(C1CC1)N1CCN(c2ccnn3cc(-c4ccc(C5=NCCN5)cc4)cc23)CC1 [Compound 111, cyclopropyl(4-(6-(4-(4,5-dihydro-1H-imidazol-2-yl)phenyl)pyrrolo[1,2-b]pyridazin-4-yl)piperazin-1-yl)methanone] | 0.1 to 0.5 µM | < 0.01 µM
21 | CCN1CCC(c2ccc(-c3cc4c(N5CCN(C(=O)[C@H]6C[C@H]6F)CC5)ccnn4c3)cc2)CC1 [Compound 281] | < 0.1 µM | < 0.01 µM
22 | CCNC(=O)N1CCN(c2ccnn3cc(-c4ccc(C5CCN(C(C)C)CC5)c(F)c4)cc23)CC1 [Compound 354] | < 0.1 µM | < 0.01 µM
23 | Cc1cc([C@H]2CCN(C(C)C)C2)ccc1-c1cc2c(N3CCN(C(=O)C4CC4)CC3)ccnn2c1 [Compound 256] | 0.1 to 0.5 µM | < 0.01 µM
24 | CCCNC(=O)N1CCN(c2ccnn3cc(-c4ccc([C@H]5CCN(C(C)C)C5)cc4)cc23)CC1 [Compound 532] | < 0.1 µM | < 0.01 µM
25 | COC1(c2ccc(-c3cc4c(N5CCN(C(=O)NC(C)C)CC5)ccnn4c3)cc2)CCNCC1 [Compound 541] | < 0.1 µM | < 0.01 µM
26 | CCOC(=O)N1CCN(c2ccnn3cc(-c4ccc([C@]5(OCC)CCCNC5)cc4)cc23)CC1 [Compound 783] | < 0.1 µM | < 0.01 µM
27 | CC(C)N1CCC(c2ccc(-c3cc4c(N5CCN(C(=O)SC6COC6)CC5)ccnn4c3)cc2)CC1 [Compound 832] | < 0.1 µM | < 0.01 µM
28 | CCN1C[C@@H]2CN(c3ccnn4cc(-c5ccc(N6CCN(C(C)C)CC6)cc5)cc34)CCN2C1=O [Compound 330] | 0.1 to 0.5 µM | < 0.01 µM
29 | COC[C@H](C)N1CCC(OC)(c2ccc(-c3cc4c(N5CCN(C(=O)[C@H]6C[C@H](C#N)C6)CC5)ccnn4c3)nc2)CC1 [Compound 748] | < 0.1 µM | < 0.01 µM
30 | C[C@@H]1CN(c2ccc(-c3cc4c(N5CCN(C(=O)C6CC6)CC5)ccnn4c3)cc2)CCN1 [Compound 155] | 0.1 to 0.5 µM | < 0.01 µM
31 | CC(C)N1CCC(c2ccc(-c3cc4c(N5CCN(C(=O)C6CCC6)CC5)ccnn4c3)cc2)C1 (centres unmarked) [Compound 249] | < 0.1 µM | < 0.01 µM

Results, then the compound that gave them:

Row | IC50 (human ALK2 R206H) | IC50 [1] | SMILES
32 | < 0.1 µM | < 0.01 µM | CC(C)N1CCC[C@@](F)(c2ccc(-c3cc4c(N5CCN(C(=O)OC6COC6)CC5)ccnn4c3)cc2)C1 [Compound 690]
33 | < 0.1 µM | < 0.01 µM | CC(C)N1CCN(c2ccc(-c3cc4c(N5CCN(C(=O)C6CC6)CC5)ccnn4c3)cc2)CC1 [Compound 261]
34 | < 0.1 µM | < 0.01 µM | CCOC1(c2ccc(-c3cc4c(N5CCN(C(=O)OC6COC6)CC5)ccnn4c3)nc2)CCN(C[C@H](C)F)CC1 [Compound 882]
35 | < 0.1 µM | < 0.01 µM | CO[C@@]1(c2ccc(-c3cc4c(N5CCN(C(=O)NC(C)C)CC5)ccnn4c3)cc2)CCN(C(C)C)C1 [Compound 638]
36 | < 0.1 µM | < 0.01 µM | CC(C)N1CCCC(O)(c2ccc(-c3cc4c(N5CCN(C(=O)C6CC6)CC5)ccnn4c3)cc2)C1 (centres unmarked) [Compound 323]
37 | < 0.1 µM | < 0.01 µM | CCNC(=O)N1CCN(c2ccnn3cc(-c4cc5c(s4)CN(C(C)C)CC5)cc23)CC1 [Compound 192]
38 | < 0.1 µM | < 0.01 µM | CC(C)N1CCC(c2ccc(-c3cc4c(N5CCN(C(=O)NCC(F)(F)F)CC5)ccnn4c3)cc2)CC1 [Compound 708]
39 | < 0.1 µM | < 0.01 µM | CC[C@@H](C)N1CCC[C@@H](c2ccc(-c3cc4c(N5CCN(C(=O)C6CC6)CC5)ccnn4c3)cc2)C1 [Compound 562]
40 | < 0.1 µM | < 0.01 µM | CCO[C@@]1(c2ccc(-c3cc4c(N5CCN(C(=O)OC6COC6)CC5)ccnn4c3)nc2)CCCNC1 [Compound 819]
41 | < 0.1 µM | < 0.01 µM | CCOC1(c2ccc(-c3cc4c(N5CCN(C(=O)C6CC6)CC5)ccnn4c3)cc2)CCNCC1 [Compound 524]
42 | < 0.1 µM | < 0.01 µM | O=C(C1CC1)N1CCN(c2ccnn3cc(-c4cc5c(s4)CNCC5)cc23)CC1 [Compound 107]
43 | < 0.1 µM | < 0.01 µM | CC[C@H](C)N1CCC(c2ccc(-c3cc4c(N5CCN(C(=O)C6CC6)CC5)ccnn4c3)cc2)CC1 [Compound 564]
44 | < 0.1 µM | < 0.01 µM | O=C(OC1COC1)N1CCN(c2ccnn3cc(-c4ccc([C@@H]5CCCN5)cn4)cc23)CC1 [Compound 476]
45 | < 0.1 µM | < 0.01 µM | CC(C)N1CC[C@H](OC(F)F)[C@@H](c2ccc(-c3cc4c(N5CCN(C(=O)C6CC6)CC5)ccnn4c3)cc2)C1 [Compound 848]
46 | < 0.1 µM | < 0.01 µM | O=C(C1CC1)N1CCN(c2ccnn3cc(-c4nc5c(s4)CNCC5)cc23)CC1 [Compound 109]
47 | < 0.1 µM | < 0.01 µM | CCN1CCC(c2ccc(-c3cc4c(N5CCN(C(=O)[C@H]6C[C@H](O)C6)[C@H](C)C5)ccnn4c3)cc2)CC1 [Compound 382]
48 | < 0.1 µM | < 0.01 µM | O=C(C1CC1)N1CCN(c2ccnn3cc(-c4ccc(C5CCCN5)cn4)cc23)CC1 (centres unmarked) [Compound 453]
49 | < 0.1 µM | < 0.01 µM | CCOC1(c2ccc(-c3cc4c(N5CCN(C(=O)O[C@H]6CCOC6)CC5)ccnn4c3)nc2)CCN(C(C)C)CC1 [Compound 877]
50 | < 0.1 µM | < 0.01 µM | CCOC(=O)N1CCN(c2ccnn3cc(-c4ccc([C@@]5(O)CCN(C(C)C)C5)cc4)cc23)CC1 [Compound 550]
51 | < 0.1 µM | < 0.01 µM | CCOC(=O)N1CCN(c2ccnn3cc(-c4ccc(C(N)C(C)(C)O)cc4)cc23)CC1 (centres unmarked) [Compound 764]
52 | < 0.1 µM | < 0.01 µM | O=C(C1CC1)N1CCN(c2ccnn3cc(-c4ccc(C5CCNCC5)cc4)cc23)CC1 [Compound 122]

Source: patent publication US10233186B2, “Inhibitors of activin receptor-like kinase” (BLUEPRINT MEDICINES CORPORATION, priority 2016, dated 2019)
